Tested on: T1, hCMG helicase
T1 construct: fork-unwinding strand displacement assay with ATP
Test: helicase assay (fork-unwinding; strand displacement assay)
Assay type: biochemical, human
Conditions: 20 uL reactions: 1 uL DMSO or drugs, 2 uL hCMG (~15 fmol enzyme), 0.5 mM ATP; RF1-134 compared to CA1 (100% inhibition); drug concentration not given
Description: For 20 uL reactions: 1 uL DMSO or drugs, 2 uL hCMG (~15 fmol enzyme), and 0.5 mM ATP were added. The noviose sugar (purple box; called RF1-134) was generated using synthetic chemical approaches. […] CA1 refers to coumermycin-A1.

In the case of CO[C@H]1[C@H](OC(=O)c2ccc(C)[nH]2)[C@H](O)[C@@H](Oc2ccc3c(O)c(NC(=O)c4c[nH]c(C(=O)Nc5c(O)c6ccc(O[C@H]7OC(C)(C)[C@@H](OC)[C@H](OC(=O)c8ccc(C)[nH]8)[C@@H]7O)c(C)c6oc5=O)c4C)c(=O)oc3c2C)OC1(C)C [CA1, coumermycin-A1], the “inhibition of hCMG helicase activity” value is reported as 100%.

Source: patent publication US20260308196A1, “HELICASE INHIBITORS” (H. LEE MOFFITT CANCER CENTER AND RESEARCH INSTITUTE, INC., priority 2023, published 2026)
